Test results reported in patent US20230271964A1, “5-AMINO-8-(4-PYRIDYL)-[1,2,4]TRIAZOLO[4,3-C]PYRIMIDIN-3-ONE COMPOUNDS FOR USE AGAINST CANCER” (ASTRAZENECA AB, priority 2020, published 2023).

How the values were obtained:
[1] = target: human adenosine A2A receptor (Homo sapiens (Human), UniProt P29274); experiment: Adenosine receptor inhibition binding assay, [3H]ZM241385, HEK293 A2A receptor membranes; details: 1 nM [3H]ZM241385, HEK293-hA2A membranes, 25° C., 1 h, Ki from IC50 by Cheng-Prusoff
human adenosine A2A receptor, sequence (P29274 whole entry): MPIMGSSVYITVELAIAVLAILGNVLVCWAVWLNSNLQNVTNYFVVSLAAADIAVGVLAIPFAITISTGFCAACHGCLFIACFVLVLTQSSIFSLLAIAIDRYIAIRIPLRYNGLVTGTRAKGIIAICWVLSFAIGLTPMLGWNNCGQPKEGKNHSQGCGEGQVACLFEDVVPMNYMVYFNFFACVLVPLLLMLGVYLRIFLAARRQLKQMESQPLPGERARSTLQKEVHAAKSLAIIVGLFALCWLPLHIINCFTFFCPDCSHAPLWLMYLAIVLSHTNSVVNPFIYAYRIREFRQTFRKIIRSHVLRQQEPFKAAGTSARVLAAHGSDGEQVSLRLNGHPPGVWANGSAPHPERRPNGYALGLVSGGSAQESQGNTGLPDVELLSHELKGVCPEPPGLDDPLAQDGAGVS
In short: (§1)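 Membranes from BacMam-transduced HEK293 cells (0.2 µg A2A; 1.4 µg A1) incubated 1 h at 25 °C with 1 nM radioligand; A2A in 50 mM Tris-HCl pH 7.4, A1 buffer adds 100 mM NaCl, 10 mM MgCl2. Nonspecific binding: 1 µM CGS 15943 (A2A) or 1 µM DPCPX (A1). Filtration, scintillation counting; IC50 converted to Ki via Cheng-Prusoff.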

human CB1 receptor = human CB1 receptor (Homo sapiens (Human), UniProt P21554); experiment: CB1 receptor antagonism, agonist-induced cAMP modulation (HTRF) in transfected CHO cells; format: cell-based; details: read-out: Antag IC50
human CB1 receptor, sequence (P21554 whole entry): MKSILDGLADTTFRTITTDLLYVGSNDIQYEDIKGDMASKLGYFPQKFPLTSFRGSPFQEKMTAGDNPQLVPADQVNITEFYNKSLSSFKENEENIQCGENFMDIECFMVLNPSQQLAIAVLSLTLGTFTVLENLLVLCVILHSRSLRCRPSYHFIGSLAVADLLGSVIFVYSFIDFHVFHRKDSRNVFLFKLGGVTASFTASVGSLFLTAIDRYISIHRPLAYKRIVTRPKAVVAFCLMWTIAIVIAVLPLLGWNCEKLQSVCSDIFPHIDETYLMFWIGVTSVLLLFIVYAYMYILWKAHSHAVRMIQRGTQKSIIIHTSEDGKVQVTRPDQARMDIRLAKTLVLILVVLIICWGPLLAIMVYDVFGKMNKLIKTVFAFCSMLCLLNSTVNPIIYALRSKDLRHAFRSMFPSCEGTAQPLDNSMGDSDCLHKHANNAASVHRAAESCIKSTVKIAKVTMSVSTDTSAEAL
Experimental: Receptor antagonism: Evaluation of the antagonist activity of compounds at the human CB1 receptor expressed in transfected CHO cells, determined by measuring their effects on agonist-induced cAMP modulation using the HTRF detection method.
Thereafter, the reference agonist CP 55940 and the adenylyl cyclase activator NKH 477 are added at respective final concentrations of 3 nM and 3 µM.
For basal control measurements, CP 55940 is omitted from the wells containing 3 µM AM 281.
Following 20 min incubation at 37° C., the cells are lysed and the fluorescence acceptor (D2-labeled cAMP) and fluorescence donor (anti-cAMP antibody labeled with europium cryptate) are added.
After 60 min at room temperature, the fluorescence transfer is measured at λex=337 nm and λem=620 and 665 nm using a microplate reader (Rubystar, BMG). The cAMP concentration is determined by dividing the signal measured at 665 nm by that measured at 620 nm (ratio).
The standard reference antagonist is AM 281, which is tested in each experiment at several concentrations to generate a concentration-response curve from which its IC50 value is calculated.

[2] = target: human adenosine A1 receptor (Homo sapiens (Human), UniProt P30542); experiment: Adenosine receptor inhibition binding assay, [3H]DPCPX, A1 receptor membranes; details: 1 nM [3H]DPCPX, 25° C., 1 h, Ki from IC50 by Cheng-Prusoff
human adenosine A1 receptor, sequence (P30542 whole entry): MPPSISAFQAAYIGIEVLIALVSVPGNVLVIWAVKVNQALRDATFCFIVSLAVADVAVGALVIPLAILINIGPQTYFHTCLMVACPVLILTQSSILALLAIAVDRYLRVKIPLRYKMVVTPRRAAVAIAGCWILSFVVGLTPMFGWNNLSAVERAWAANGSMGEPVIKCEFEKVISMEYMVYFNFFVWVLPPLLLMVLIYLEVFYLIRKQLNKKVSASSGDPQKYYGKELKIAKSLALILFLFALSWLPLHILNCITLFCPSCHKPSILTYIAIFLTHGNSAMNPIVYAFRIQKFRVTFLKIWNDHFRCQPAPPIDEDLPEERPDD
In short: as §1

[3] = target: human CB-1 cannabinoid receptor (Homo sapiens (Human), UniProt P21554); experiment: CB-1 receptor radioligand binding assay, [3H]CP 55940, transfected CHO cell membranes; details: 0.5 nM [3H]CP 55940, CHO cell membranes, 120 min at 37° C.
human CB-1 cannabinoid receptor, sequence (P21554 whole entry): as the sequence (P21554 whole entry) above
Experimental: Nonspecific binding is determined in the presence of 10 µM WIN 55212-2.
Following incubation, the samples are filtered rapidly under vacuum through glass fiber filters (GF/B, Packard) presoaked with 0.3% PEI and rinsed several times with an ice-cold buffer containing 50 mM Tris-HCl (pH 7.4) and 0.5% BSA using a 96-sample cell harvester (Unifilter, Packard). The filters are dried then counted for radioactivity in a scintillation counter (Topcount, Packard) using a scintillation cocktail (Microscint 0, Packard).
The standard reference compound is CP 55940 which is tested in each experiment at several concentrations to obtain a competition curve from which its IC50 is calculated.

Structure (SMILES)	A2A pKi [1]	IC50 (human CB1 receptor) [µM]	A1 pKi [2]	Ki [3] [µM]	Ki ([1]; read-out: A2A pKi (converted)) [µM]	Ki ([2]; read-out: A1 pKi (converted)) [µM]
Cc1cc(-c2c(-c3ccc(F)cc3)nc(N)n3c(=O)n(Cc4ncoc4C)nc23)cc(CO)n1 [Example 1-51, 5-amino-7-(4-fluorophenyl)-8-[2-(hydroxymethyl)-6-methyl-4-pyridyl]-2-[(5-methyloxazol-4-yl)methyl]-[1,2,4]triazolo[4,3-c]pyrimidin-3-one]	9.4	> 100	6.4	80.3	–	–
COc1cc(-c2c(-c3ccc(F)cc3)nc(N)n3c(=O)n(Cc4ncoc4C)nc23)cc(CO)n1 [Example 1-64, 5-amino-7-(4-fluorophenyl)-8-[2-(hydroxymethyl)-6-methoxy-4-pyridyl]-2-[(5-methyloxazol-4-yl)methyl]-[1,2,4]triazolo[4,3-c]pyrimidin-3-one]	9.6	> 100	6.5	40.8	–	–
COc1cc(-c2c(-c3ccccc3)nc(N)n3c(=O)n(Cc4ncoc4C)nc23)cc(CO)n1 [Example 1-60, 5-amino-8-[2-(hydroxymethyl)-6-methoxy-4-pyridyl]-2-[(5-methyloxazol-4-yl)methyl]-7-phenyl-[1,2,4]triazolo[4,3-c]pyrimidin-3-one]	9.9	> 100	6.8	66.7	–	–
Cc1cc(-c2c(-c3ccccc3)nc(N)n3c(=O)n(Cc4cc(C)on4)nc23)cc(C)n1 [Example 1-14, 5-amino-8-(2,6-dimethyl-4-pyridyl)-2-[(5-methylisoxazol-3-yl)methyl]-7-phenyl-[1,2,4]triazolo[4,3-c]pyrimidin-3-one]	9.2	29.2	6.6	50.5	–	–
Cc1cc(-c2c(-c3ccccc3)nc(N)n3c(=O)n(CC4CCCN4Cc4ccccc4CN)nc23)cc(C)n1 (centres unmarked) [Example 3-4, 5-amino-2-[[1-[[2-(aminomethyl)phenyl]methyl]pyrrolidin-2-yl]methyl]-8-(2,6-dimethyl-4-pyridyl)-7-phenyl-[1,2,4]triazolo[4,3-c]pyrimidin-3-one]	8.4	> 100	6.3	76.4	–	–
Cc1cc(-c2c(-c3ccc(F)cc3)nc(N)n3c(=O)n(Cc4ncoc4C)nc23)cc(C)n1 [Example 1-31, 5-amino-8-(2,6-dimethyl-4-pyridyl)-7-(4-fluorophenyl)-2-[(5-methyloxazol-4-yl)methyl]-[1,2,4]triazolo[4,3-c]pyrimidin-3-one]	9.6	12.1	7.0	26.1	–	–
Cc1cc(-c2c(-c3ccccc3)nc(N)n3c(=O)n(Cc4ncoc4C)nc23)cc(C)n1 [Example 1-22, 5-amino-8-(2,6-dimethyl-4-pyridyl)-2-[(5-methyloxazol-4-yl)methyl]-7-phenyl-[1,2,4]triazolo[4,3-c]pyrimidin-3-one]	10.1	> 100	7.4	29.6	–	–
COc1cc(-c2c(-c3ccccc3)nc(N)n3c(=O)n(C[C@H]4CCCO4)nc23)cc(CO)n1 [Example 2-35, 5-amino-8-[2-(hydroxymethyl)-6-methoxy-4-pyridyl]-7-phenyl-2-[[(2R)-tetrahydrofuran-2-yl]methyl]-[1,2,4]triazolo[4,3-c]pyrimidin-3-one]	9.2	> 100	5.9	–	–	–
Cc1cc(-c2c(-c3ccccc3)nc(N)n3c(=O)n(C[C@@H]4CCCO4)nc23)cc(CO)n1 [Example 2-28, 5-amino-8-[2-(hydroxymethyl)-6-methyl-4-pyridyl]-7-phenyl-2-[[(2S)-tetrahydrofuran-2-yl]methyl]-[1,2,4]triazolo[4,3-c]pyrimidin-3-one]	9.1	> 100	6.5	–	–	–
Cn1ccnc1Cn1nc2c(-c3cc(Cl)nc(CO)c3)c(-c3ccc(F)cc3)nc(N)n2c1=O [Example 1-58, 5-amino-8-[2-chloro-6-(hydroxymethyl)-4-pyridyl]-7-(4-fluorophenyl)-2-[(1-methylimidazol-2-yl)methyl]-[1,2,4]triazolo[4,3-c]pyrimidin-3-one]	9.5	> 100	7.1	–	–	–
Cc1cc(-c2c(-c3ccc(F)cc3)nc(N)n3c(=O)n(Cc4nc(C)oc4C)nc23)cc(CO)n1 [Example 1-53, 5-amino-2-[(2,5-dimethyloxazol-4-yl)methyl]-7-(4-fluorophenyl)-8-[2-(hydroxymethyl)-6-methyl-4-pyridyl]-[1,2,4]triazolo[4,3-c]pyrimidin-3-one]	9.2	> 100	6.5	–	–	–
Cc1cc(-c2c(-c3ccccc3)nc(N)n3c(=O)n(Cc4nonc4C)nc23)cc(CO)n1 [Example 1-46, 5-amino-8-[2-(hydroxymethyl)-6-methyl-4-pyridyl]-2-[(4-methyl-1,2,5-oxadiazol-3-yl)methyl]-7-phenyl-[1,2,4]triazolo[4,3-c]pyrimidin-3-one]	9.3	> 100	6.4	–	–	–

The next lines start with the values.

A2A pKi [1]	IC50 (human CB1 receptor) [µM]	A1 pKi [2]	Ki [3] [µM]	Ki ([1]; read-out: A2A pKi (converted)) [µM]	Ki ([2]; read-out: A1 pKi (converted)) [µM]	Structure (SMILES)
9.5	> 100	6.5	86.1	–	–	Cc1cc(-c2c(-c3ccc(F)cc3)nc(N)n3c(=O)n(Cc4nccn4C)nc23)cc(CO)n1 [Example 1-50, 5-amino-7-(4-fluorophenyl)-8-[2-(hydroxymethyl)-6-methyl-4-pyridyl]-2-[(1-methylimidazol-2-yl)methyl]-[1,2,4]triazolo[4,3-c]pyrimidin-3-one]
9.1	> 100	6.7	86.9	–	–	Cc1cc(-c2c(-c3ccccc3)nc(N)n3c(=O)n(Cc4cc(C)on4)nc23)cc(CO)n1 [Example 1-43, 5-amino-8-[2-(hydroxymethyl)-6-methyl-4-pyridyl]-2-[(5-methylisoxazol-3-yl)methyl]-7-phenyl-[1,2,4]triazolo[4,3-c]pyrimidin-3-one]
–	35.8	–	36.4	0.00316	0.1	Cc1cc(-c2c(-c3ccccc3)nc(N)n3c(=O)n(C[C@H]4CC(F)(F)CN4C)nc23)cc(C)n1 [Example 2-14, 5-amino-2-[[(2R)-4,4-difluoro-1-methyl-pyrrolidin-2-yl]methyl]-8-(2,6-dimethyl-4-pyridyl)-7-phenyl-[1,2,4]triazolo[4,3-c]pyrimidin-3-one]
8.9	10.1	7.6	29.2	–	–	Cc1cc(-c2c(-c3ccccc3)nc(N)n3c(=O)n(CCN4CCCC4c4cccs4)nc23)cc(C)n1 (centres unmarked) [Example 3-1, 5-amino-8-(2,6-dimethyl-4-pyridyl)-7-phenyl-2-[2-[2-(2-thienyl)pyrrolidin-1-yl]ethyl]-[1,2,4]triazolo[4,3-c]pyrimidin-3-one]
9.4	> 100	7.2	–	–	–	Cc1cc(-c2c(-c3ccccc3)nc(N)n3c(=O)n(Cc4ccn(C)n4)nc23)cc(C)n1 [Example 1-16, 5-amino-8-(2,6-dimethyl-4-pyridyl)-2-[(1-methylpyrazol-3-yl)methyl]-7-phenyl-[1,2,4]triazolo[4,3-c]pyrimidin-3-one]
9.5	> 100	7.8	–	–	–	COc1cc(-c2c(-c3ccccc3)nc(N)n3c(=O)n(Cc4nccn4C)nc23)cc(C)n1 [Example 1-38, 5-amino-8-(2-methoxy-6-methyl-4-pyridyl)-2-[(1-methylimidazol-2-yl)methyl]-7-phenyl-[1,2,4]triazolo[4,3-c]pyrimidin-3-one]
